Experimental data from BindingDB's records for patent US20230295119 (Gossamer Bio Services, 2023).

What was measured:
[1] = target: Tyrosine-protein kinase JAK1 (Homo sapiens, UniProt P23458); assay: JAK1, JAK2, and JAK3 Activity
Experimental: (§1) Compounds described herein were tested for the ability to inhibit activity of human JAK1, JAK2 and JAK3, which was achieved using TR-FRET assays. Briefly, the Kinases JAK1 (2.5 nM), JAK2 (0.025 nM) and JAK3 (0.0125 nM) were incubated with a series of concentrations of the test compound in the presence of […] (biotin-ahx- […]-CONH2), 2 nM Eu-labeled anti-pTYRPY20 and 80 nM Streptavidin APC. After 30 min incubation at RT, ATP ([…] respectively for JAK1, JAK2 and JAK3) was added to start the reaction, and incubated for 80 min at RT. The reaction was stopped by adding detection buffer and incubated for a further 60 min at RT. The samples were analyzed using Envision to calculate % inhibition at each of the series of concentrations of the test compound. The IC50 value of the compounds for each of the kinases were calculated using XLFit software.

[2] = target: T1, Tyrosine-protein kinase JAK3 (Homo sapiens, UniProt P52333); assay: JAK1, JAK2, and JAK3 Activity
T1 sequence (P52333 whole entry): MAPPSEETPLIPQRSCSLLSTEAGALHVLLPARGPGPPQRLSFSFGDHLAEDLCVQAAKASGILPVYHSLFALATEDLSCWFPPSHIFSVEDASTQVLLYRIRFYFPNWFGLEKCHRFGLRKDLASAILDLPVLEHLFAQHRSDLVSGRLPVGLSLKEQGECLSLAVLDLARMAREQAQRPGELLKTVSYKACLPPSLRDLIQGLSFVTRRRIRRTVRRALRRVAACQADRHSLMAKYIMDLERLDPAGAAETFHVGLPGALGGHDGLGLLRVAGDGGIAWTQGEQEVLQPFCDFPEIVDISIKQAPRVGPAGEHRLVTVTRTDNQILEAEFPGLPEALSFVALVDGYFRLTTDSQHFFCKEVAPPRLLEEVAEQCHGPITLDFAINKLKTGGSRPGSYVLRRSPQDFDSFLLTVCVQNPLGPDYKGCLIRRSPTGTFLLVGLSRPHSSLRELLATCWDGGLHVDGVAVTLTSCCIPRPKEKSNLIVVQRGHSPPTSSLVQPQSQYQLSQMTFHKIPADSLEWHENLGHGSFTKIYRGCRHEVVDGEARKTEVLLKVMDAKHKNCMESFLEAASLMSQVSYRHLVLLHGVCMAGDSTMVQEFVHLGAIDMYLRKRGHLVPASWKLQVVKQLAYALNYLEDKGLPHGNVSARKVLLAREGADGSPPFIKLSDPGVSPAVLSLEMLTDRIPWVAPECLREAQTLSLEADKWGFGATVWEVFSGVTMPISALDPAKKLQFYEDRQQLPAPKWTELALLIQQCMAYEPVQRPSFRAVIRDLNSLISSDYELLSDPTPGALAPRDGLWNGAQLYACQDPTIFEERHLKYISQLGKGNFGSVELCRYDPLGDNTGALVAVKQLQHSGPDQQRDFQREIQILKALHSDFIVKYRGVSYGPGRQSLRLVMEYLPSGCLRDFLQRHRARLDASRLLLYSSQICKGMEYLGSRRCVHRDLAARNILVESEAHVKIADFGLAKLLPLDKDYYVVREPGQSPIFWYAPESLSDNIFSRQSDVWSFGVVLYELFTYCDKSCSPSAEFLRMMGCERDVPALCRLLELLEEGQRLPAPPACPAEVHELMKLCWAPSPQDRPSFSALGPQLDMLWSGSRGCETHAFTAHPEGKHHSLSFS
Experimental: as §1

[3] = target: Tyrosine-protein kinase JAK2 (Homo sapiens, UniProt O60674); assay: JAK1, JAK2, and JAK3 Activity
Experimental: as §1

[4] = JAK1, JAK2, and JAK3 Activity

Chain of Tyrosine-protein kinase JAK1 (P23458 whole entry): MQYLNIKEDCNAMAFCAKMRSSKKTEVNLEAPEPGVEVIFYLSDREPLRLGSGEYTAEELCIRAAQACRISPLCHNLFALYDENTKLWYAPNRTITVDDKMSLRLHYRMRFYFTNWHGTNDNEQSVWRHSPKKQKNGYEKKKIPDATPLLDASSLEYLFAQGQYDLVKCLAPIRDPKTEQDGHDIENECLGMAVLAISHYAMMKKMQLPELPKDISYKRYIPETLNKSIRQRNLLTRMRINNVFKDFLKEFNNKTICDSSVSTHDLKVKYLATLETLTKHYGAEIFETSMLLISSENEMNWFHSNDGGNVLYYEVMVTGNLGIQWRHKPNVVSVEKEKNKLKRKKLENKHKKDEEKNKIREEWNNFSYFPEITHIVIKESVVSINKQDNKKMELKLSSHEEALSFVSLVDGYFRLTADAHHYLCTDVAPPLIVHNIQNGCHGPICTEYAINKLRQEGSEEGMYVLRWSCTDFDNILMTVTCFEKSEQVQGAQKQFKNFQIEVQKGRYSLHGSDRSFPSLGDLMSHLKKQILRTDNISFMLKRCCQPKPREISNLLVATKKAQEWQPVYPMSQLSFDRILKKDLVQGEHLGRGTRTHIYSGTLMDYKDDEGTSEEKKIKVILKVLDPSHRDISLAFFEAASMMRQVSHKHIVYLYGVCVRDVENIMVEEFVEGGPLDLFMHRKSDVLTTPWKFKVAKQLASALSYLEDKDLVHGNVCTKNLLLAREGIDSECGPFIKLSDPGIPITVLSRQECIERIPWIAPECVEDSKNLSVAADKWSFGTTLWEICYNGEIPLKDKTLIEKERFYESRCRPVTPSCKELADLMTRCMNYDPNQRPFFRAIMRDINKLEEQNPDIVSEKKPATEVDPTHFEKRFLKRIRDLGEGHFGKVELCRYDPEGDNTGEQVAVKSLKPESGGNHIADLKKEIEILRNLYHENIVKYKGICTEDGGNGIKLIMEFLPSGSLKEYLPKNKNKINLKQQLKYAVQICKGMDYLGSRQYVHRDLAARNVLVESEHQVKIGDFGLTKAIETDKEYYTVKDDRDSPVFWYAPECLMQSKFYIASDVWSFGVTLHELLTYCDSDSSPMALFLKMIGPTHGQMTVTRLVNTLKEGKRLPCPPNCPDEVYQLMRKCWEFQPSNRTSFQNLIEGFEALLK
Chain of Tyrosine-protein kinase JAK2 (O60674 whole entry): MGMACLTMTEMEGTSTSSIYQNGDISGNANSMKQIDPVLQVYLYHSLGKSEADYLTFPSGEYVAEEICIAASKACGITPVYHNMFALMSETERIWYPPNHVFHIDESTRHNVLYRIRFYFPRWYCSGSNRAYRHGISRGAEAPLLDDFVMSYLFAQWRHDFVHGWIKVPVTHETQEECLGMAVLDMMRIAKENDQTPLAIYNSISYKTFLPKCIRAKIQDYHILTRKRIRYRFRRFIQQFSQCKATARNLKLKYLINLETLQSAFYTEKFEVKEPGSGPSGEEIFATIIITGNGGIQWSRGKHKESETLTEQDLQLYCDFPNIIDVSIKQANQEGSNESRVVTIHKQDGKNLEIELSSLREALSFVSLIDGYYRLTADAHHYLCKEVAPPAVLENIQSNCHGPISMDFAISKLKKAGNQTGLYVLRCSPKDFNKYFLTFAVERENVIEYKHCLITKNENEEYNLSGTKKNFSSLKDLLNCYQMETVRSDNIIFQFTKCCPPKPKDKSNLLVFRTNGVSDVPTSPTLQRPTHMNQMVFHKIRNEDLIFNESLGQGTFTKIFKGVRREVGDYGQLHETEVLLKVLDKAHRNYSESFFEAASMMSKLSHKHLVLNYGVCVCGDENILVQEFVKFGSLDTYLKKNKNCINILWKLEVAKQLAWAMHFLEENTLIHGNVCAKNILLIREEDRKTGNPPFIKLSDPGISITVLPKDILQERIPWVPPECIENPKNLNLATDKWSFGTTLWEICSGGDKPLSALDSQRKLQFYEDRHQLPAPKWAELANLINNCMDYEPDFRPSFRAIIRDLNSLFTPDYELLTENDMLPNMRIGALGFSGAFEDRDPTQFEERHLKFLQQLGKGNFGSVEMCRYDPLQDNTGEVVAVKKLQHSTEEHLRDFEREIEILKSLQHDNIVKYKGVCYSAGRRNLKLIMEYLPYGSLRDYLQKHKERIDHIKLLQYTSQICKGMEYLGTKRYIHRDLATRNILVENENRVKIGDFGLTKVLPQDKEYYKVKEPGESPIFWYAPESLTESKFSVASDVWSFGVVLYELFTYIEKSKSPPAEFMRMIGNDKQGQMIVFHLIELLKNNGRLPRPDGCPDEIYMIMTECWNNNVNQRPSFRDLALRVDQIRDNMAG

CCC(=O)c1cnc(Nc2ccc(CN3CCN(C)CC3)nn2)cc1Nc1cccc(-c2ncn(C)n2)c1OC [US20230295119, Compound 9PPP]
IC50 [1]: > 500 nM
IC50 [2]: > 500 nM

CCC(=O)c1cnc(Nc2cnc(O[C@@H]3CCN(CC)C3)cn2)cc1Nc1cccc(-c2ncn(C)n2)c1OC [US20230295119, Compound 18DDD]
IC50 [1]: > 500 nM
IC50 [3]: > 500 nM
IC50 [2]: > 500 nM

CCC(=O)c1cnc(Nc2cnc(OCCN3CCN(C)CC3)cn2)cc1Nc1cccc(-c2ncn(C)n2)c1OC [US20230295119, Compound 18FFF]
IC50 [1]: > 500 nM
IC50 [3]: > 500 nM
IC50 [2]: > 500 nM
IC50 [4]: < 5 nM

CCC(=O)c1cnc(Nc2cc(C(C)NC)ncn2)cc1Nc1cccc(-c2ncn(C)n2)c1OC (configuration not stated) [US20230295119, Compound 9PPPP]
IC50 [1]: > 500 nM
IC50 [2]: > 500 nM
IC50 [4]: < 5 nM
